The values below come from patent US20250215029A1 (Recludix Pharma, Inc., priority 2022, published 2025).

The target in experiment [1] is T1, Recombinant STAT6 protein (STAT6 (W123-T658)) (Homo sapiens, UniProt P42226).
T1 construct: Recombinant STAT6 protein (STAT6 (W123-T658))
T1 sequence (P42226 123-658): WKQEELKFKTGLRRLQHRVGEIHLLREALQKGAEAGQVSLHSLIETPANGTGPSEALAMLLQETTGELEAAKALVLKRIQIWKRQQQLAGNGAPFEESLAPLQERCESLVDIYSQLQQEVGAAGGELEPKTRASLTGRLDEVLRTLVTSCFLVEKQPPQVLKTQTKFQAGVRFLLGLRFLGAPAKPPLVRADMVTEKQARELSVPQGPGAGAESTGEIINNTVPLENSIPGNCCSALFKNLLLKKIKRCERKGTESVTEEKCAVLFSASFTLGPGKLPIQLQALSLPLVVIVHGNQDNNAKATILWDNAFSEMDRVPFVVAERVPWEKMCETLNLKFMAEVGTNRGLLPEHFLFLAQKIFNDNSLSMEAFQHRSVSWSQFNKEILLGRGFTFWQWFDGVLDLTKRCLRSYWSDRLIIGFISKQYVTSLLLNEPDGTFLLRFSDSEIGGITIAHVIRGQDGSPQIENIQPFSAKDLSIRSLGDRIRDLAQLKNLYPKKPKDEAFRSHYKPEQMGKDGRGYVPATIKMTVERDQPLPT
Briefly: STAT6 Fluorescence Polarization (FP) Assay. The format is binding. To be noted: 45-minute incubation. The method, boiled down: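 Recombinant STAT6 (W123-T658) at 250 nM mixed with 2 nM 5-FAM phosphotyrosine peptide probe in HEPES pH 7.4 buffer with DTT, 1% DMSO final, added to serially diluted compounds. FP (mP) read after 45 min at room temperature; IC50 by nonlinear regression vs log concentration.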
On the technique in general: In fluorescence polarisation assays a small probe gives low polarisation when free and higher when bound to something large.

Experiment [2] concerns the target T2, Recombinant STAT3 protein (STAT3 (G127-I722)) (Homo sapiens, UniProt P40763).
T2 construct: Recombinant STAT3 protein (STAT3 (G127-I722))
Briefly: STAT3 Fluorescence Polarization (FP) Assay. The experiment is classed as binding. To be noted: probe 5-FAM-GpYLPQTV-NH2 2 nM, 45-minute incubation. The method, boiled down:
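Displacement of a 2 nM 5-FAM-labelled pY peptide (GpYLPQTV) from 25 nM recombinant STAT3 (G127-I722) was monitored by fluorescence polarization. Incubation lasted 45 min at room temperature in pH 7.4 HEPES buffer containing 1% DMSO.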

Setting [3] is: STAT6 (W123-T658) 250 nM, probe 5-FAM-Ap[…]-NH2 2 nM, read-out: STAT6 (FP assay IC50 class).
Setting [4] is: STAT3 (G127-I722) 25 nM, read-out: STAT3 (FP assay IC50 class).
Setting [5] is: STAT6 (W123-T658) 250 nM, probe 5-FAM-ApYKPFQDLI-NH2 2 nM, read-out: STAT6 (FP assay IC50 class).

Read-outs that look alike come from different tables or passages of the source.

T2 sequence (P40763 127-722): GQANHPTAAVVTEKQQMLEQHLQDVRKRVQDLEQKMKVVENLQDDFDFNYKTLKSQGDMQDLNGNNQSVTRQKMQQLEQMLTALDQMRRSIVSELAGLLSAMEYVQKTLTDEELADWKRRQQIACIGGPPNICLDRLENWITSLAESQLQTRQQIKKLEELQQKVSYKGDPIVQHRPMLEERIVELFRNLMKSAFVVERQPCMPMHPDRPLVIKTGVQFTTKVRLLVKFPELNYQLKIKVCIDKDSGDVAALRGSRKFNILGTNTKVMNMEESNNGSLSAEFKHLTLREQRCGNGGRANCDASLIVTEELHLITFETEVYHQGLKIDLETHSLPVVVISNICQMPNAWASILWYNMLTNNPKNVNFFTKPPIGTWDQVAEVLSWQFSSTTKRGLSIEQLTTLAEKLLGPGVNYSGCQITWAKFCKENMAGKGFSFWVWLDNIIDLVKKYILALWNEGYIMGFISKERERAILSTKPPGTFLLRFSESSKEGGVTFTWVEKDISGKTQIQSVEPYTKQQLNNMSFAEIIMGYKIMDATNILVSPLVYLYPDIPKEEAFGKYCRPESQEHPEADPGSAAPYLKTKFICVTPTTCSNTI

Regarding `COC[C@@H]1CCN1c1ccncc1C1CN(C(=O)[C@@H]2CC[C@@H]3CCC[C@H](NC(=O)c4cc5cc([C@@H](F)P(=O)(O)O)ccc5s4)C(=O)N32)C1` [Compound 926, ((S)-fluoro(2-(((3S,6S,9aS)-3-(3-(4-((S)-2-(methoxymethyl)azetidin-1-yl)pyridin-3-yl)azetidine-1-carbonyl)-5-oxooctahydro-1H-pyrrolo[1,2-a]azepin-6-yl)carbamoyl)benzo [b]thiophen-5-yl)methyl) phosphonic acid], the half-inhibitory concentration (IC50) (in general, the concentration that inhibits the measured activity by half) in experiment [1] (setting [3]) is 3000 to 30000 nM; in experiment [2] (setting [4]), under 100 nM.
For `COc1cc(F)ncc1C1CN(C(=O)[C@@H]2CC[C@@H]3CCC[C@H](NC(=O)c4cc5cc(CP(=O)(O)O)ccc5s4)C(=O)N32)C1` [Compound 577, ((2-(((3S,6S,9aS)-3-(3-(6-fluoro-4-methoxypyridin-3-yl)azetidine-1-carbonyl)-5-oxooctahydro-1H-pyrrolo[1,2-a]azepin-6-yl)carbamoyl)benzo[b]thiophen-5-yl)methyl)phosphonic acid], the 50% inhibitory concentration (IC50) lay within 3000 to 30000 nM in experiment [1] (setting [3]) and 1000 to 10000 nM in experiment [2] (setting [4]).
`O=C(N[C@H]1CCC[C@H]2CC[C@@H](C(=O)N3CC(c4ccccc4F)C3)N2C1=O)c1cc2cc(C(F)P(=O)(O)O)ccc2s1` (stereo partly drawn) [Compound 565, (fluoro(2-(((3S,6S,9aS)-3-(3-(2-fluorophenyl)azetidine-1-carbonyl)-5-oxooctahydro-1H-pyrrolo[1,2-a]azepin-6-yl)carbamoyl)benzo[b]thiophen-5-yl)methyl)phosphonic acid]: the results for the half-inhibitory concentration (IC50) in experiment [1] (setting [3]) and in experiment [2] (setting [4]) were 3000 to 30000 nM and 100 to 1000 nM, respectively.
`N#CCC1CN(C(=O)[C@@H]2CC[C@@H]3CCC[C@H](NC(=O)c4cc5cc(C(F)(F)P(=O)(O)O)ccc5s4)C(=O)N32)C1` [Compound 50, ((2-(((3S,6S,9aS)-3-(3-(cyanomethyl)azetidine-1-carbonyl)-5-oxooctahydro-1H-pyrrolo[1,2-a]azepin-6-yl)carbamoyl)benzo[b]thiophen-5-yl)difluoromethyl) phosphonic acid]: the half-maximal inhibitory concentration (IC50) lay in the range of 300 to 3000 nM in experiment [1] (STAT6 250 nM, probe 5-FAM-Ap[…]-NH2 2 nM, read-out: STAT6 (FP assay IC50)) and 100 to 1000 nM in experiment [2] (STAT3 25 nM, read-out: STAT3 (FP assay IC50)).
Regarding `CN(C)C(=O)c1ccncc1C1CN(C(=O)[C@@H]2CC[C@@H]3CCC[C@H](NC(=O)c4cc5cc([C@@H](F)P(=O)(O)O)ccc5s4)C(=O)N32)C1` (single isomer, unassigned) [Compound 696], the half-maximal inhibitory concentration (IC50) lay within 3000 to 30000 nM in experiment [1] (setting [3]) and 1000 to 10000 nM in experiment [2] (setting [4]).
In the case of `N#C[C@@H]1[C@@H](c2ccccc2)CN(C(=O)[C@@H]2CC[C@@H]3CCCC[C@H](NC(=O)c4cc5cc([C@H](F)P(=O)(O)O)ccc5s4)C(=O)N32)C12CC2` (single isomer, unassigned) [Compound 835], the values for the 50% inhibitory concentration (IC50) in experiment [1] (setting [3]) and in experiment [2] (setting [4]) were at most 300 nM and 1000 to 10000 nM, respectively.
Regarding `O=C(N[C@H]1CCC[C@H]2CC[C@@H](C(=O)N3CC(c4cnccc4N4CCC4)C3)N2C1=O)c1cc2cc([C@H](F)P(=O)(O)O)ccc2s1` (single isomer, unassigned) [Compound 742], the results for the IC50 in experiment [1] (setting [3]) and in experiment [2] (setting [4]) were 300 to 3000 nM and under 100 nM, respectively.
As to `CC1(C)C[C@@H](c2ccccc2)CN1C(=O)[C@@H]1CC[C@@H]2CCCC[C@H](NC(=O)c3cc4cc(C(F)(F)P(=O)(O)O)ccc4s3)C(=O)N21` [Compound 814, ((2-(((3S,6S,10aS)-3-((S)-2,2-dimethyl-4-phenylpyrrolidine-1-carbonyl)-5-oxodecahydropyrrolo [1,2-a]azocin-6-yl)carbamoyl)benzo [b]thiophen-5-yl)difluoromethyl) phosphonic acid], the IC50 in experiment [1] (setting [3]) was 300 to 3000 nM; in experiment [2] (setting [4]), 1000 to 10000 nM.
`COc1cncc([C@@H]2CN(C(=O)[C@@H]3CC[C@@H]4CCC[C@H](NC(=O)c5cc6cc([C@H](F)P(=O)(O)O)ccc6s5)C(=O)N43)C3(CC3)[C@H]2C#N)c1` (single isomer, unassigned) [Compound 847]: the IC50 in experiment [1] (setting [5]) fell in the range of 300 to 3000 nM; in experiment [2] (setting [4]), 1000 to 10000 nM.
In the case of `O=C(N[C@H]1CCCC[C@H]2CC[C@@H](C(=O)N3CC(c4cc[nH]c(=O)c4)CC34CC4)N2C1=O)c1ccc2ccc(C(F)(F)P(=O)(O)O)cc2c1` (stereo partly drawn) [Compound 877, (difluoro(7-(((3S,6S,10aS)-5-oxo-3-(6-(2-oxo-1,2-dihydropyridin-4-yl)-4-azaspiro[2.4]heptane-4-carbonyl)decahydropyrrolo[1,2-a]azocin-6-yl)carbamoyl)naphthalen-2-yl)methyl) phosphonic acid], the IC50 in experiment [1] (setting [3]) is at most 300 nM; in experiment [2] (setting [4]), 1000 to 10000 nM.
In the same order, the values of `O=C(N[C@H]1CCCC[C@H]2CC[C@@H](C(=O)N3C[C@H](c4cccnc4)CC34CC4)N2C1=O)c1cc2cc([C@@H](F)P(=O)(O)O)ccc2s1` (single isomer, unassigned) [Compound 909] are at most 300 nM and 1000 to 10000 nM.
With `COC1(c2cncnc2)CN(C(=O)[C@@H]2CC[C@@H]3CCC[C@H](NC(=O)c4cc5cc(C(F)(F)P(=O)(O)O)ccc5s4)C(=O)N32)C1` [Compound 723, (difluoro(2-(((3S,6S,9aS)-3-(3-methoxy-3-(pyrimidin-5-yl)azetidine-1-carbonyl)-5-oxooctahydro-1H-pyrrolo[1,2-a]azepin-6-yl)carbamoyl)benzo [b]thiophen-5-yl)methyl) phosphonic acid], the IC50 was in the range of 3000 to 30000 nM in experiment [1] (setting [3]) and 100 to 1000 nM in experiment [2] (setting [4]).
With `CN(Cc1cc[nH]c(=O)c1)C(=O)[C@@H]1CC[C@@H]2CCCC[C@H](NC(=O)c3cc4cc(C(F)(F)P(=O)(O)O)ccc4s3)C(=O)N21` [Compound 800, (difluoro(2-(((3S,6S,10aS)-3-(methyl((2-oxo-1,2-dihydropyridin-4-yl)methyl)carbamoyl)-5-oxodecahydropyrrolo [1,2-a]azocin-6-yl)carbamoyl)benzo [b]thiophen-5-yl)methyl) phosphonic acid], the half-maximal inhibitory concentration (IC50) in experiment [1] (setting [3]) is 300 to 3000 nM; in experiment [2] (setting [4]) it was 1000 to 10000 nM.
Consider “((S)-(2- (((3S,6S,9aS)-3- ((6S,7R)-7-cyano-6- (pyridin-3-yl)-4- azaspiro[2.4] heptane-4- carbonyl)-5- oxooctahydro-1H- pyrrolo[1,2- a]azepin-6- yl)carbamoyl)benzo [b]thiophen-5- yl)fluoromethyl) phosphonic acid [Compound 838]”, for which the figures for the IC50 in experiment [1] (setting [5]) and in experiment [2] (setting [4]) were at most 300 nM and 1000 to 10000 nM, respectively.
`Cn1ccc(C2CN(C(=O)[C@@H]3CC[C@@H]4CCC[C@H](NC(=O)c5cc6cc([C@@H](F)P(=O)(O)O)ccc6s5)C(=O)N43)C2)cc1=O` (single isomer, unassigned) [Compound 708]: the IC50 in experiment [1] (setting [3]) lay within 3000 to 30000 nM; in experiment [2] (setting [4]), 100 to 1000 nM.
The matching figures for `C[C@@H]1[C@@H](c2cccnc2)CN1C(=O)[C@@H]1CC[C@@H]2CCC[C@H](NC(=O)c3cc4cc(C(F)P(=O)(O)O)ccc4s3)C(=O)N21` (single isomer, unassigned) [Compound 738]: 300 to 3000 nM and under 100 nM.
In the same order, the values of `COc1cccc([C@@H]2CN(C(=O)[C@@H]3CC[C@@H]4CCCC[C@H](NC(=O)c5cc6cc(C(F)P(=O)(O)O)ccc6s5)C(=O)N43)C3(CC3)[C@H]2C#N)c1` (relative stereo) [Compound 231, ((2-(((3S,6S,10aS)-3-((rel-trans)-7-cyano-6-(3-methoxyphenyl)-4-azaspiro[2.4]heptane-4-carbonyl)-5-oxodecahydropyrrolo[1,2-a]azocin-6-yl)carbamoyl)benzo[b]thiophen-5-yl)fluoromethyl)phosphonic acid] are at most 300 nM and 1000 to 10000 nM.
For `O=C(N[C@H]1CCCC[C@H]2CC[C@@H](C(=O)NCc3cnc4[nH]cnc4c3)N2C1=O)c1cc2cc(C(F)P(=O)(O)O)ccc2s1` (stereo partly drawn) [Compound 521, ((2-(((3S,6S,10aS)-3-(((3H-imidazo[4,5-b]pyridin-6-yl)methyl)carbamoyl)-5-oxodecahydropyrrolo[1,2-a]azocin-6-yl)carbamoyl)benzo[b]thiophen-5-yl)fluoromethyl)phosphonic acid], the half-inhibitory concentration (IC50) was 3000 to 30000 nM in experiment [1] (setting [3]) and under 100 nM in experiment [2] (setting [4]).
As to `N#C[C@@H]1[C@@H](c2cncc(Cl)c2)CN(C(=O)[C@@H]2CC[C@@H]3CCCC[C@H](NC(=O)c4cc5cc(C(F)P(=O)(O)O)ccc5s4)C(=O)N32)C12CC2` (single isomer, unassigned) [Compound 846], the IC50 in experiment [1] (setting [3]) was in the range of 300 to 3000 nM; in experiment [2] (setting [4]), 1000 to 10000 nM.
